Measurements taken from patent publication US10711249B2, “Method for inducing hepatocytes” (KYOTO UNIVERSITY, priority 2014, dated 2020).
Where a name gives a salt, the structure may show the parent alone.

Assays:
adrenergic α1 receptor = assay: Mechanism study: albumin secretion with adrenergic receptor blocking agents added with methoxamine in Stage 3; assay type: cell-based, human; details: 10 μM blocking agent added with methoxamine in Stage 3, 8 days
Description: To study the mechanism of methoxamine to increase the efficacy of hepatocyte induction, adrenergic receptor blocking agents against each adrenergic receptor were added and the secretions of albumin from the resulting cells were measured. […] Methoxamine and each adrenergic receptor blocking agent were added in Stage 3. The adrenergic receptor blocking agents used herein were as follows: 10 μM doxazosin (Sigma) as an α1 blocking agent; 10 μM yohimbine (Sigma) as an α2 blocking agent; and 10 μM metoprolol (Sigma) as a β1 blocking agent; and 10 μM butoxamine (Sigma) as a β2 blocking agent.

[1] = system: hepatoblasts induced from human iPS cells; assay: Albumin secreted into the culture medium measured by ELISA; assay type: cell-based; details: 1 μM in Stage 3, 8 days
[2] = system: hepatoblasts induced from human iPS cells 201B6; assay: Induction of albumin-positive cells in Stage 3 (anti-albumin immunostaining, albumin mRNA by quantitative PCR); assay type: cell-based
Description: The effects of analogous compounds (adrenergic receptor agonist, in particular, an agent having α receptor stimulating action) serving as an alternative compound for a methoxamine hydrochloride were checked. In Stage 3 as mentioned above, cells were cultured in a Hepatocyte Culture Medium (HCM SingleQuots Kit) supplemented with 1 μM etilefrine, phenylephrine or methoxamine hydrochloride for 8 days. The content ratio of albumin-positive cells and the mRNA expression level of albumin were measured in the same manner as above. […] Furthermore, the amount of albumin secreted from the obtained cell population into the culture mediumliquid was measured by ELISA.

CYP3A4 = CYP3A4 expression in induced cells (immunostaining and quantitative PCR)
Description: A cell population obtained by culturing the cells obtained in Stage 2 in a Hepatocyte Culture Medium (HCM SingleQuots Kit) containing 20 ng/ml HGF and 20 ng/ml oncostatin M (HGF+OsM) for 8 days; a cell population obtained by culturing the cells obtained in Stage 2 in a Hepatocyte Culture Medium (HCM SingleQuots Kit) supplemented with 1 μM methoxamine hydrochloride for 8 days; a cell population obtained by culturing the cells obtained in Stage 2 in a Hepatocyte Culture Medium (HCM SingleQuots Kit) supplemented with 1 μM pregnenolone for 8 days; and a cell population obtained by culturing the cells obtained in Stage 2 in a Hepatocyte Culture Medium (HCM SingleQuots Kit) supplemented with DMSO for 8 days were immuno-stained with a CYP3A4 antibody (Proteintech Group) (FIG. 9A). […] CYP3A4mRNA expression levels were measured in these cell populations by quantitative PCR in the same manner as above.

[3] = system: Mouse ES cells (D3 cell line); assay: Induction of hepatocytes from mouse ES cells: expression of Tat, Cyp3a11, Cyp3a13; details: 1 μM in Stage 3, 8 days; compared with HGF+OsM
Description: In order to remove feeder cells, the cells were seeded in a plate coated with gelatin. Ten to twenty minutes later, the supernatant containing the ES cells and the culture medium was collected, then the cells were seeded in a 24-well plate coated with Matrigel basement Membrance Matrix Growth Factor Reduced (BD) such that the cells were placed in a rate of 2.0×10^4-8.0×10^4 cells/well. The cells were cultured in RPMI1640 supplemented with 1 μM CHIR99021 (Axon Medchem), 100 ng/ml Activin A (R&D systems), 2% B27 (Invitrogen) and 0.5% PenStrep (Invitrogen) for one day (Stage 1-1) (day 1).
Subsequently, 0.5 mM NaB (Sigma) was added to the medium and the cells were cultured for one day (Stage 1-2) (day 2). The medium was removed and the cells were cultured in RPMI1640 supplemented with 0.5 mM NaB (Sigma), 1 μM CHIR99021 (Axon Medchem), 100 ng/ml Activin A (R&D systems), 2% B27 (Invitrogen) and 0.5% PenStrep (Invitrogen) for 4 days (Stage 1-3) (day 6). The cells obtained in the above steps were stained with a Sox17 antibody. The content ratio of Sox17-positive cells was determined.
After completion of Stage 1, the medium was exchanged with Knockout™ DMEM (Invitrogen) supplemented with 1% DMSO, 20% KSR (Invitrogen), 1 mM L-glutamic acid, 1% NEAA (Invitrogen), 0.1 mM β mercaptoethanol, 0.5 mM NaB (Sigma) and 0.5% PenStrep. […] The content ratio of AFP-positive cells was determined. […]

[4] = system: cells obtained in Stage 2 (from human iPS cells); assay: Oil Red staining of induced cells; assay type: cell-based; details: agent in Stage 3 for 8 days
Description: (§1) 1 mg/ml ICG (indocyanine green) (Sigma) was added to each cell population and cultured for 1 hour. Then, ICG uptake by the cells was observed.
The cells induced in the presence of HGF+OsM, methoxamine hydrochloride or DMSO and HepG2 were stained with Oil Red.

[5] = system: Mouse ES cells (D3 cell line); assay: Mouse ES cell-derived cells immunostained with anti-albumin, anti-Cyp3a4 and anti-C/ebpβ antibodies; assay type: cell-based; details: Stage 3, 8 days; compared with HGF+OsM
Description: The content ratio of Sox17-positive cells was determined.
The content ratio of AFP-positive cells was determined.
The cells were cultured for 8 days.
The cells cultured in the medium containing methoxamine in Stage 3 for 8 days, the cells cultured in the medium containing HGF+OsM (positive control) in the same manner as above and also the cells cultured in the medium containing DMSO (negative control) were used. These cells were immuno-stained with an anti-albumin antibody (Albumin), anti-Cyp3a4 antibody and anti-C/ebpβ antibody.

[6] = system: hepatocytes induced from human iPS cells; assay: Gene expression profile by RNA sequencing analysis (PCA, liver marker heat map); assay type: cell-based
Source text: The hepatocytes induced from human iPS cells were subjected to RNA sequencing analysis and gene expression profiles were compared.

[7] = system: cells obtained in Stage 2 (from human iPS cells); assay: PAS staining of induced cells (glycogen accumulation); assay type: cell-based; details: agent in Stage 3 for 8 days
Description: as §1
The cells induced in the presence of HGF+OsM, methoxamine hydrochloride or DMSO, and HepG2 were stained with PAS.

[8] = system: cells obtained in Stage 2 (from human iPS cells); assay: ICG (indocyanine green) uptake by induced cells; assay type: cell-based; details: agent in Stage 3 for 8 days (methoxamine hydrochloride 1 μM; HGF and oncostatin M 20 ng/ml each); 1 mg/ml ICG, 1 hour
Description: as §1

CYP1A1 = assay: Drug metabolizing enzyme induction reaction: CYP1A1 mRNA by quantitative PCR; assay type: in vitro ADME, human; details: 100 μM omeprazole, 2 days
Description: A cell population obtained by culturing the cell population obtained in Stage 2 in a Hepatocyte Culture Medium (HCM SingleQuots Kit) supplemented with 20 ng/ml HGF and 20 ng/ml oncostatin M (HGF+OsM) for 8 days; and a cell population obtained by culturing the cell population obtained in Stage 2 in a Hepatocyte Culture Medium (HCM SingleQuots Kit) supplemented with 1 μM methoxamine hydrochloride for 8 days; Panc1 (human pancreatic cancer-derived cell line: Riken Bioresource Center); and HepG2 (human hepatocarcinoma-derived cell line) were used. Each of the cell populations was cultured in a Hepatocyte Culture Medium (HCM SingleQuots Kit) in the presence or absence of 100 μM omeprazole (Sigma) for 2 days, and thereafter, CYP1A1 mRNA expression level was measured by quantitative PCR. […] The amount of CYP1A1 mRNA relative to β actin mRNA was obtained and used as relative expression level of CYP1A1.

For `COc1cc2nc(N3CCN(C(=O)C4COc5ccccc5O4)CC3)nc(N)c2cc1OC` (centres unmarked) [doxazosin], the “volume of albumin secretion” value (adrenergic α1 receptor) was “decreased”.
`CCNCC(O)c1cccc(O)c1` (centres unmarked) [etilefrine] was tested, and the “amount of albumin secreted into the culture medium (ELISA)” value (“amount” below) [1] was “cells having an ability to secrete albumin can be induced”.
In the case of `CC(=O)[C@H]1CC[C@H]2[C@@H]3CC=C4C[C@@H](O)CC[C@]4(C)[C@H]3CC[C@]12C` [pregnenolone], the “induction of albumin-positive cells at two concentrations” value ([2]; pregnenolone 150 nM and 1 μM in Stage 3) is reported as “the same results were obtained”, the “CYP3A4 immunostaining of the induced cells” value (CYP3A4; agent in Stage 3 for 8 days (1 μM; HGF and oncostatin M 20 ng/ml each)) is reported as “Cells expressing CYP3A4 were found” and the “CYP3A4 mRNA expression level (quantitative PCR)” value (CYP3A4; agent in Stage 3 for 8 days, relative to cells induced with DMSO) is reported as “intensively expressed”. For the same molecule, the “expression of Tat, Cyp3a11 and Cyp3a13” value [3] was “express the same drug metabolizing enzymes as in the case where HGF+OsM was used”.
In the case of `COc1ccc(OC)c(C(O)C(C)N)c1` (centres unmarked) [methoxamine hydrochloride], the “Oil Red staining (lipid drops) of the induced cells” value [4] is reported as “accumulation of lipid drops was observed in some of the cells”, the “amount” value [1] is reported as “cells having an ability to secrete albumin can be induced” and the “immunostaining for Albumin, Cyp3a4 and C/ebpβ” value [5] is reported as “very similar expression was observed”. The “gene expression profile compared with hepatocytes induced by HGF and OsM” value [6] was “substantially the same gene expression profile”, the “concentration at which albumin-expressing cells were obtained (albumin mRNA, quantitative PCR)” value ([2]; Stage 3, 8 days, tested 0 M, 1 fM, 1 pM, 1 nM, 1 μM, 50 μM, 100 μM) was no less than 1 fM and the “PAS staining (glycogen) of the induced cells” value [7] was “stained red-purple”. The “ICG uptake by the induced cells” value [8] was “ICG uptake was observed”.
In the case of `COc1ccc2[nH]c([S+]([O-])Cc3ncc(C)c(OC)c3C)nc2c1` (centres unmarked) [omeprazole], the “CYP1A1 mRNA expression level” value (CYP1A1; HepG2 cells) is reported as “expression of CYP1A1 was induced”, the “CYP1A1 mRNA expression level” value (CYP1A1; cell population induced with 1 μM methoxamine hydrochloride in Stage 3) is reported as “expression of CYP1A1 was induced” and the “CYP1A1 mRNA expression level” value (CYP1A1; cell population induced with HGF+OsM in Stage 3) is reported as “expression of CYP1A1 was induced”.
In the case of `CNC[C@H](O)c1cccc(O)c1` [phenylephrine], the “amount” value [1] is reported as “cells having an ability to secrete albumin can be induced”.
